This is an account of results in PubChem BioAssay (NCI).

SMILES strings stand for the structures.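 Exposure lasted 48 hours, with cells grown in 96-well plates and compounds tested at five concentrations. TGI marks complete inhibition of growth.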 A value given as a limit tells only on which side of the number the result lay.

Test systems include 786-0 renal; MALME-3M melanoma; NCI-H226 lung; RPMI-8226 leukemia; RXF 393 renal; SK-MEL-28 melanoma; SK-OV-3 ovarian; SW-620 colon; U251 CNS; UACC-257 melanoma; UACC-62 melanoma; UO-31 renal.
Holding throughout (assay): NCI-60 cell line screen, 48 h

`CC(C)(C)OC(=O)NNCC(O)COc1ccccc1` (configuration not stated): the TGI in the test with 786-0 renal, in the test on MALME-3M melanoma, with NCI-H226 lung, with RPMI-8226 leukemia, in the test on RXF 393 renal and with SK-MEL-28 melanoma was over 100 µM in each case. The TGI with SK-OV-3 ovarian, in the test on SW-620 colon, in the test on U251 CNS, with UACC-257 melanoma, in the test with UACC-62 melanoma and in the test on UO-31 renal was over 100 µM in each case.
In the case of `OCC(S)CS.[Bi]` (configuration not stated), the TGI in the test on 786-0 renal was 39.3 µM; in the test on MALME-3M melanoma, 17.6 µM; with NCI-H226 lung, over 100 µM; with RPMI-8226 leukemia it was 28.3 µM; in the test with RXF 393 renal, 26.2 µM; in the test on SK-MEL-28 melanoma, 28.3 µM. For the same compound, the TGI with SK-OV-3 ovarian is over 100 µM; in the test on SW-620 colon, over 100 µM; in the test with U251 CNS it was 40.2 µM; in the test with UACC-257 melanoma, 27.9 µM; in the test on UACC-62 melanoma it was 38.5 µM; in the test on UO-31 renal it was 34.1 µM.
With `O=C1C=CC(=O)c2c(O)c(N(CCCl)CCCl)c(Cl)c(O)c21`, the TGI is over 7.67 µM in the test on 786-0 renal; 5.79 µM in the test on MALME-3M melanoma; over 10 µM in the test on NCI-H226 lung; over 10 µM with RPMI-8226 leukemia; over 6.69 µM in the test on RXF 393 renal; over 6.98 µM in the test on SK-MEL-28 melanoma. Further, the TGI is over 10 µM with SK-OV-3 ovarian; 6.56 µM in the test on SW-620 colon; over 9.09 µM in the test on U251 CNS; 5.23 µM in the test on UACC-257 melanoma; over 7.71 µM in the test with UACC-62 melanoma; over 7.1 µM in the test with UO-31 renal.
For `COc1ccc(/N=N/C(=NNC(=O)c2ccc(C)cc2)c2ccc(N(C)C)cc2)cc1`, the TGI in the test on 786-0 renal is over 100 µM; in the test with MALME-3M melanoma it was 94.6 µM; with NCI-H226 lung it was over 100 µM; with RPMI-8226 leukemia, over 70.9 µM; in the test with RXF 393 renal, over 100 µM; with SK-MEL-28 melanoma it was over 100 µM. In addition, the TGI was over 100 µM with SK-OV-3 ovarian; over 100 µM in the test on SW-620 colon; over 100 µM with U251 CNS; over 91.4 µM with UACC-257 melanoma; over 83.1 µM in the test with UACC-62 melanoma; over 100 µM in the test on UO-31 renal.
Regarding `Fc1ccc2c(c1)nc1n2C(c2c(F)cccc2F)SC1` (configuration not stated), the TGI in the test with 786-0 renal, in the test with MALME-3M melanoma, with NCI-H226 lung, in the test on RPMI-8226 leukemia, with RXF 393 renal and in the test with SK-MEL-28 melanoma was over 100 µM in each case. Further, the TGI in the test with SK-OV-3 ovarian, with SW-620 colon, in the test with U251 CNS, with UACC-257 melanoma, in the test with UACC-62 melanoma and in the test on UO-31 renal was over 100 µM in each case.
For the compound `CCN(CC)CCNc1ccc([N+](=O)[O-])c2nc3ccc(OC)cc3c(N)c12`, the TGI with 786-0 renal was determined as 1.66 µM; in the test on MALME-3M melanoma it was 3.61 µM; in the test on NCI-H226 lung, 4.41 µM; with RPMI-8226 leukemia, 0.704 µM; with RXF 393 renal, 2.58 µM; in the test on SK-MEL-28 melanoma it was 3.37 µM. The TGI with SK-OV-3 ovarian stood at 3.58 µM; with SW-620 colon, 0.772 µM; in the test on U251 CNS it was 3.06 µM; in the test with UACC-257 melanoma it was 3.97 µM; in the test with UACC-62 melanoma, 3.61 µM; with UO-31 renal it was 3.13 µM.
With `COc1ccc2c(c1)[nH]c1c3ccc(OC)cc3oc(=O)c21`, the TGI in the test on 786-0 renal, with MALME-3M melanoma, with NCI-H226 lung, in the test with RPMI-8226 leukemia, in the test on RXF 393 renal and in the test on SK-MEL-28 melanoma was over 100 µM each time. The TGI in the test with SK-OV-3 ovarian, with SW-620 colon, in the test on U251 CNS, in the test with UACC-257 melanoma, in the test with UACC-62 melanoma and in the test on UO-31 renal was over 100 µM throughout.
In the case of `O=C1Nc2ccccc2SC1=C(C(=O)c1ccccc1)C(=O)c1ccccc1`, the TGI in the test on 786-0 renal is over 100 µM; in the test with MALME-3M melanoma, over 100 µM; in the test on NCI-H226 lung it was over 87.5 µM; in the test with RPMI-8226 leukemia it was over 100 µM; in the test with RXF 393 renal it was over 100 µM; in the test on SK-MEL-28 melanoma, over 100 µM. Besides, the TGI was 65.3 µM with SK-OV-3 ovarian; over 100 µM in the test on SW-620 colon; over 100 µM in the test with U251 CNS; over 88 µM in the test on UACC-257 melanoma; 51.6 µM in the test on UACC-62 melanoma; over 100 µM in the test with UO-31 renal.
In the case of `COc1ccc(C2NC(N)=C(C#N)C3=C2C(C)CCC3)cc1OC` (configuration not stated), the TGI in the test on 786-0 renal, in the test with MALME-3M melanoma, in the test with NCI-H226 lung, with RPMI-8226 leukemia, in the test with RXF 393 renal and in the test on SK-MEL-28 melanoma was over 100 µM throughout. Moreover, the TGI in the test on SK-OV-3 ovarian, with SW-620 colon, in the test on U251 CNS, in the test with UACC-257 melanoma, with UACC-62 melanoma and in the test with UO-31 renal was over 100 µM throughout.
With `Cc1nccn1S(=O)(=O)c1ccc(Cl)cc1`, the TGI in the test on 786-0 renal, with MALME-3M melanoma, in the test on NCI-H226 lung, in the test with RPMI-8226 leukemia, in the test with RXF 393 renal and in the test with SK-MEL-28 melanoma was over 100 µM each time. Further, the TGI with SK-OV-3 ovarian, in the test on SW-620 colon, with U251 CNS, in the test on UACC-257 melanoma, in the test with UACC-62 melanoma and in the test on UO-31 renal was over 100 µM in each case.
As to `CCOC(=O)CN1C(=O)C(=O)N(c2ccc(OC)c3ccccc23)C1=O`, the TGI with 786-0 renal, with MALME-3M melanoma, in the test on NCI-H226 lung, in the test on RPMI-8226 leukemia, with RXF 393 renal and in the test with SK-MEL-28 melanoma was over 100 µM throughout. In addition, the TGI with SK-OV-3 ovarian, in the test with SW-620 colon, in the test on U251 CNS, in the test on UACC-257 melanoma, in the test with UACC-62 melanoma and in the test with UO-31 renal was over 100 µM each time.
In the case of `Cc1ccc(S(=O)(=O)N/N=C\c2c3ccccc3[n+](C)c3ccccc23)cc1`, the TGI was over 100 µM with 786-0 renal; 95.3 µM in the test on MALME-3M melanoma; 60.1 µM with NCI-H226 lung; over 100 µM in the test with RPMI-8226 leukemia; 43.6 µM in the test on RXF 393 renal; over 100 µM in the test with SK-MEL-28 melanoma. Moreover, the TGI with SK-OV-3 ovarian is over 100 µM; with SW-620 colon, over 100 µM; in the test on U251 CNS, 71.3 µM; in the test on UACC-257 melanoma it was over 100 µM; in the test with UACC-62 melanoma, 74.6 µM; with UO-31 renal, 88.9 µM.
As to `CCOC(=O)Cc1cc(=O)[nH]c(-n2[nH]c(C)c(CCO)c2=O)n1`, the TGI in the test with 786-0 renal, in the test with MALME-3M melanoma, with NCI-H226 lung, with RPMI-8226 leukemia, in the test with RXF 393 renal and in the test with SK-MEL-28 melanoma was over 100 µM throughout. Besides, the TGI in the test with SK-OV-3 ovarian, in the test on SW-620 colon, with U251 CNS, in the test with UACC-257 melanoma, in the test with UACC-62 melanoma and in the test on UO-31 renal was over 100 µM throughout.
Consider `Cn1c(-c2c(C3=CC(=O)N(c4ccccc4)C3=O)c3ccccc3n2C)cc2ccccc21`, for which the TGI in the test with 786-0 renal, in the test on MALME-3M melanoma, in the test with NCI-H226 lung, in the test with RPMI-8226 leukemia, in the test with RXF 393 renal and in the test with SK-MEL-28 melanoma was over 100 µM each time. Further, the TGI in the test with SK-OV-3 ovarian, with SW-620 colon, with U251 CNS, in the test with UACC-257 melanoma, in the test with UACC-62 melanoma and in the test with UO-31 renal was over 100 µM throughout.
On to `COC(=N)CCCl`, for which the TGI in the test with 786-0 renal, in the test with MALME-3M melanoma, in the test with NCI-H226 lung, with RPMI-8226 leukemia, in the test on RXF 393 renal and with SK-MEL-28 melanoma was over 100 µM throughout. For the same compound, the TGI in the test on SK-OV-3 ovarian, in the test with SW-620 colon, in the test with U251 CNS, with UACC-257 melanoma, with UACC-62 melanoma and in the test on UO-31 renal was over 100 µM each time.
Regarding `CCN(CCC#N)C(=O)Nc1ccccc1`, the TGI in the test with 786-0 renal, with MALME-3M melanoma, in the test with NCI-H226 lung, with RPMI-8226 leukemia, in the test on RXF 393 renal and in the test on SK-MEL-28 melanoma was over 100 µM in each case. In addition, the TGI in the test on SK-OV-3 ovarian, in the test with SW-620 colon, in the test on U251 CNS, with UACC-257 melanoma, in the test with UACC-62 melanoma and in the test on UO-31 renal was over 100 µM in each case.
